Reference: article PMC8318231, “Rate-of-Kill (RoK) assays to triage large compound sets for Chagas disease drug discovery: Application to GSK Chagas Box” (PLoS Neglected Tropical Diseases, 2021)

What was measured:
TcCYP51 = conditions: formerly reported; cited from earlier work
[1] = tested on: T. cruzi Tulahuen trypomastigotes; assay: T. cruzi trypomastigote assay (Cell Titer-Glo viability, ATP luminescence); type: cell-based, Trypanosoma cruzi; conditions: for Trypomastigotes pIC50 48 hours: 48 hours incubation; for Trypomastigotes pIC50 48 hours / Trypomastigotes pIC50 72 hours: pIC50 = -log10 IC50 in molar units; for Trypomastigotes pIC50 72 hours: 72 hours incubation; for 72 pIC50: 72 h
Method in brief: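 Tulahuen trypomastigotes from infected LLC-MK2 culture supernatants (days 5–8) plated at 5 × 10^4 per well in DMEM/2% FBS with compound at 5 μM single-shot final or in dose response. Viability by CellTiter-Glo ATP luminescence after 10 min at room temperature, normalised to no-cell (100%) and DMSO (0%) controls.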

[2] = tested on: T. cruzi intracellular amastigotes in H9c2 cells; assay: Rate-of-Kill (RoK) high-content imaging assay, amastigotes per cell (AM/CELL) and curve descriptors; type: cell-based, Trypanosoma cruzi; design: key to ME_24h / ME_48h / ME_72h: % reduction in parasite burden (cidal response); t50pct_MCC50 / t50pct_Cmax: unit not given here; conditions: for ME_24h: 24h; for ME_48h: 48h; for ME_72h: 72h; for AM/CELL NORM: sheet figure 4 A; for ME_24h (%): maximum effect at 24 h; for ME_24h (%) / ME_48h (%) / ME_72h (%): RoK assay; for ME_48h (%): maximum effect at 48 h; for ME_72h (%): maximum effect at 72 h; for ME 24h (maximum effect at 24 hours, intracellular amastigotes): maximum percentage of parasite burden reduction reached by any concentration
Method in brief: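 H9c2 cardiomyocytes infected with T. cruzi trypomastigotes (MOI 8, 18 h), then compounds tested at 5 μM single shot or 11-point 1/3 dilution from 50 μM. DRAQ5-stained nuclei imaged over a time course. Amastigotes per cell normalised to infected cells at 4 h (0%) and non-infected cells (100%).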

Row | Compound | CYP51 pIC50 (TcCYP51) | Trypomastigotes pIC50 48 hours [1] | Trypomastigotes pIC50 72 hours [1] | ME_24h ([2]; figure 5) | ME_48h ([2]; figure 5) | ME_72h ([2]; figure 5) | MCCE ([2]; RoK curve descriptor) | AM/CELL NORM ([2]; Time 4) | AM/CELL NORM ([2]; Time 24) | AM/CELL NORM ([2]; Time 48) | AM/CELL NORM ([2]; Time 72) | tlag_Cmax ([2]; at Cmax) | t50pct_Cmax ([2]; at Cmax, figure 5) | tlag_Cmax ([2]; at Cmax, figure 5) | t50pct_MCC50 ([2]; at MCC50, figure 5) | tlag_MCC50 ([2]; at MCC50, figure 5) | MCCE ([2]; figure 5) | ME_24h (%) [2] | ME_48h (%) [2] | ME_72h (%) [2] | also measured
1 | CC(CNS(=O)(=O)c1ccc(OC(F)F)cc1)c1ccc(NC(=O)c2ccncc2)cc1 (centres unmarked) [TCMDC-143535] | 7.3 | 4.6 | 4.4 | -92.8433 | -11.1799 | 45.5869 | 0.2 µM | 3.544 | -92.8433 | -15.4132 | 37.7082 | 24.0 h | 72 | 24 | 72 | 72 | 0.2058 | -92.8% | -11.2% | 45.6% | MCC50 ([2]; figure 5): 50 µM; ME 24h (maximum effect at 24 hours, intracellular amastigotes) [2]: -92.8433%
2 | Cc1cc(N(C)C)nc(Nc2ccccc2C)n1 [TCMDC-143109] | < 4 | 5.7 | 5.6 | 47.5747 | 78.0835 | 82.1728 | 1.9 µM | 2.321 | 36.6087 | 78.0835 | 76.3621 | 4.0 h | 48 | 4 | 48 | 4 | 1.852 | 47.6% | 78.1% | 82.2% | MCC50 ([2]; RoK curve descriptor): 5.6 µM; t50%_Cmax ([2]; at Cmax): 48.0 h; t50%_MCC50 ([2]; at MCC50): 48.0 h; tlag_MCC50 ([2]; at MCC50): 4.0 h; MCC50 ([2]; figure 5, in µM): 5.556; ME 24h (maximum effect at 24 hours, intracellular amastigotes) [2]: 47.5747%
3 | Cc1nn(C)c(Cl)c1CN(Cc1cccnc1)Cc1ccsc1 [TCMDC-143477] | 7.2 | < 4.3 | < 4.3 | -46.0078 | -102.792 | -13.578 | 0.6 µM | -6.323 | -46.0078 | -102.792 | -72.3369 | 48.0 h | 72 | 48 | 72 | 72 | 0.6173 | -46.0% | -102.8% | -13.6% | 72 pIC50 (trypomastigotes, raw data of Fig 1D) ([1]; 72 hours, plotted values, censored values given without sign): < 4.3; 48 pIC50 ([1]; trypomastigote assay, 48 h, figure 1A): < 4.3; 72 pIC50 ([1]; trypomastigote assay, figure 1A): < 4.3; 72 pIC50 ([1]; trypomastigote assay, figure 1B): < 4.3; MCC50 ([2]; figure 5): 50 µM; ME 24h (maximum effect at 24 hours, intracellular amastigotes) [2]: -46.0078%
